Test results reported in article PMC4298801, “Structure-Guided Design Affirms Inhibitors of Hepatitis C Virus p7 as a Viable Class of Antivirals Targeting Virion Release” (Hepatology (Baltimore, Md.), 2013).
Read-outs that look alike come from different tables or passages of the source.

Tests used:
J4/JFH-1 (GT1b/2a HCV) = assay: Inhibition of infectious virus release from Huh7 cells transfected with J4/JFH-1 RNA (focus forming assay); format: cell-based, hepatitis C virus
Experimental: (§1) Figure 4 Selection of novel, structurally diverse p7 inhibitors. In silico screening using p7 channel models as a template derived a range of Lipinski-compliant potential inhibitors of the p7 channel complex and the top 30 were selected for testing as proof-of-principle. (A) Liposome dye release assay showing endpoint values compounds with activity against wild-type p7 at 250 nM that were subsequently selected for cell culture studies. Results are the average of two separate experiments with each condition in duplicate and are expressed as a percentage of the untreated protein value following baseline subtraction (liposomes alone). […] (B) Inhibition of infectious virus release from Huh7 cells transfected with J4/JFH-1 RNA using novel compounds (400 nM). Selected compounds show minimal effect on intracellular infectivity, replicon replication and have no toxic effects (see Supporting Fig. 5 and Table 2). […] (C) Structures of selected initial hit compounds. (D) Predicted docking poses of rimantadine novel compounds at the allosteric binding site (calculated in Glide, Schrodinger). Key interacting residues are highlighted.
Figure 6 Effects of novel inhibitors against multiple HCV genotypes. […] Results are representative of two independent experiments and are the average of triplicate wells. Error bars represent standard deviations. […]

J4/JFH-1(L20F) = conditions: subcytotoxic concentrations; cited from earlier work
genotype 1b p7 = target: T1, genotype 1b p7 (Hepatitis C virus genotype 1b, UniProt O92972); assay: Liposome carboxyfluorescein dye release assay for p7 channel activity; format: biochemical; conditions: genotype 1b p7 in vitro, prototype control, read-out: median inhibitory concentration [IC50]
T1 construct: selected for testing against genotype 1b p7 in vitro; made in house; host or cells: Escherichia coli BL21(DE3)
T1 sequence (O92972 747-809): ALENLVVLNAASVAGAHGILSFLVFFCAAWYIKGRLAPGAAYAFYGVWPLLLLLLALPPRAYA
Experimental: Liposome carboxyfluorescein release assays were conducted as described previously.[13],[15],[28]
as §1

Leu20Phe J4/JFH-1 = assay: HCV spread following infection at low M.O.I., NS5A foci counted; format: cell-based, hepatitis C virus; conditions: low multiplicity infection
Excerpt: Figure 5 Specificity of novel p7 inhibitors. Screening lead hits LDS19 and 21 were examined for specificity against wild-type and rimantadine resistant HCV. (A) Titration of LDS 19 and 21 against Huh7 cells transfected with both wild-type (diamonds) and Leu20Phe (squares) J4/JFH-1 RNA, showing effects on released infectivity. Graph plots the average released titers from duplicate wells from at least two separate experiments, normalized to the 100% untreated value. Error bars represent normalized percent error of the mean between experiments (*P < 0.05). (B) Effects of p7 inhibitors on HCV spread following infection at low M.O.I (0.0001 FFU/cell). Huh7 cells were infected in triplicate overnight with wild-type (black) and Leu20Phe (white) J4/JFH-1 and then media replaced after extensive washing with that containing inhibitors. Fluorescent NS5A foci were counted at 72 hours postinfection. […] Error bars represent normalized percent error of the mean (*P < 0.05, **P < 0.01). […] Results are the average of two separate experiments with duplicate wells and error bars are normalized percent error of the mean between experiments.

SMILES	IC50 (J4/JFH-1 (GT1b/2a HCV); J4/JFH-1 RNA transfected Huh7, prototype shown for comparison, read-out: ∼IC50, infectious virus release) [µM]	effect on Leu20Phe infectious virion production (J4/JFH-1(L20F))	IC50 (J4/JFH-1 (GT1b/2a HCV); Hepatitis C virus, GT1B, Huh-7, read-out: ∼IC50, infectious virus release) [µM]	IC50 (genotype 1b p7) [µM]	sensitivity of Leu20Phe HCV spread to compound (Leu20Phe J4/JFH-1)
CCCCCCCCCN1C[C@H](O)[C@@H](O)[C@H](O)[C@H]1CO [NN-DNJ]	~20				
CC(N)C12CC3CC(CC(C3)C1)C2 (centres unmarked) [rimantadine]		ineffective	~40	~40	insensitive
